What was measured:
[1] = tested on: Influenza A virus; assay: Antiviral activity against Influenza A virus (A/Korea/KBNP-0028/2000(H9N2)) infected in chicken egg after 5 days by hemagglutinination assay; assay type: functional, organism-based; settings: 120 h
[2] = Cytotoxicity against CEF cells by MTT assay; assay type: cell-based, Gallus gallus; settings: chicken
[3] = Selectivity index, ratio of CC50 for CEF cells to EC50 for Influenza A virus (A/Korea/KBNP-0028/2000(H9N2)); assay type: toxicity, cell-based; settings: chicken

SMILES | EC50 [1] | CC50 [2] | selectivity ratio [3]
O=C(CCc1ccc(O)cc1)C[C@H](CCc1cccc(O)c1)O[C@@H]1OC[C@@H](O)[C@H](O)[C@H]1O | 56.1 µM | > 560 µM | > 10
O=C(CCc1ccc(O)c(O)c1)C[C@H](CCc1cccc(O)c1)O[C@@H]1OC[C@@H](O)[C@H](O)[C@H]1O [ALNUSIDE A] | > 350 µM | > 500 µM | 
O=C(/C=C/CCc1ccc(O)c(O)c1)CCc1ccc(O)c(O)c1 [DEHYDROHIRSUTANONOL] | > 350 µM | > 500 µM | 
O=C(CCc1ccc(O)c(O)c1)C[C@@H](O)CCc1ccc(O)c(O)c1 [HIRSUTANONOL] | > 350 µM | > 500 µM | 
O=C(CCc1ccc(O)c(O)c1)C[C@H](CCc1ccc(O)c(O)c1)O[C@@H]1OC[C@@H](O)[C@H](O)[C@H]1OC(=O)/C=C/c1ccc(O)cc1 [OREGONOYL A] | > 350 µM | > 500 µM | 
COc1cc(/C=C/C(=O)O[C@H]2[C@H](O[C@@H](CCc3ccc(O)c(O)c3)CC(=O)CCc3ccc(O)c(O)c3)OC[C@@H](O)[C@@H]2O)ccc1O [OREGONOYL B] | > 350 µM | > 500 µM | 
CC(=O)N[C@H]1[C@H]([C@H](O)[C@H](O)CO)OC(C(=O)O)=C[C@@H]1N=C(N)N [ZANAMIVIR] |  | > 753 µM | > 44
